Measured values as given in patent publication US7700651B2, “Preparations of phospholipids and pharmaceuticals containing 5-amino salicylic acid for the treatment of inflammatory bowel disease” (The Board of Regents of the University of Texas System, priority 2006, dated 2010).

Assays:
[1] = tested on: mice placed on 3% DSS in the drinking water to induce colitis; assay: DSS-induced colitis in mice, test formulations given in the diet; type: in vivo, C57BL/6 mice; conditions: 3% DSS for four days
Procedure: Phosal 35 SB, a soy lecithin oil containing approximately 35 wt. % phosphatidylcholine (PC), was placed in glass beaker to which 5ASA (or a 5ASA containing pharmaceutical) was added under moderate heat, about 40° C., and stirring until a 1:1 weight ratio was attained. The resulting oil-based formulation was coated with a pH-sensitive polymer, e.g., MultiSal™, or Eudragrit®-S, to form polymer encapsulated micro-spheres of the 5ASA/PC composition. These encapsulated micro-spheres are formed so that the 5ASA and PC are released only when the drug reaches the distal gut, where the pH is 7 or above and the polymer coating degrades. […]
Groups of C57BL/6 mice were exposed to different diets and their daily food consumption (grams/day) were measured over a four day period of time. […]
Now, the 5ASA:PL formulations can be compared to 5ASA in treating the colitis type disorder in mice. […] The efficacy of the treating compositions were determined by measuring colon tissue weight per length.
Groups of mice were placed on drinking water comprising saline containing 3% DSS for four days to induce a colitis type disorder and then treated with the compositions of this invention. The appearance of blood as indicated by an increased hemoglobin content in the feces was measured to determine the efficacy of 5ASA versus the 5ASA:PL formulations. […]

[2] = tested on: rats with colitis induced by 4% dextran sodium sulfate (DSS) in drinking water; assay: Recovery from DSS-induced colitis in rats, 5ASA 50 mg/kg BID intragastrically for 3 days; type: in vivo, Sprague Dawley male rats
Procedure: The following experiments were designed to compare the efficacy of 5ASA versus 5ASA:PC formulations in treating rats that had been subjected to colitis induced by adding 4% dextran sodium sulfate (DSS) to their drinking water for over 5 days (5 day, 20 hours) and then returned to normal drinking water. The rats were then treated with 5ASA, in this experiment at a lower dose (50 mg/kg, BID) than that previously studied, in the absence or presence to a PL component for 3 days post DSS induced colitis.
Thirty two healthy male rats used in the study. […] Group 1 were given drinking water without added DSS. Groups 2-4 received drinking water containing 4% DSS for 6 days. At day 6, Group 2 received 1 mL saline BID intra gastrically. Group 3 received 5ASA (50 mg/Kg) BID intra gastrically. Group 4 received 5ASA (50 mg/Kg):Phosal 35SB:MCT oil (1:1:0.3), referred to heretofore as 5ASA:PC BID intra gastrically, where MCT=Medium Chain Triglyceride.
At day 9, the rats were euthanized and the following were measured: (a) hematocrit, (b) fecal hemoglobin, (c) colon weight/length, (d) colon myeloperoxidase (MPO), (e) colonic surface hydrophobicity and (f) colon histology.
In this study, rats were placed on regular drinking water (Group 1) or water containing 4% DSS and then intragastrically administered: saline (Group 2); 5ASA (Group 3) at a dose of 50 mg/kg BID); or 5ASA:PC (P35SB at 1:1 wt ratio) (Group 4) for 3 days at which time the following changes were seen.

[3] = tested on: rats with colitis induced by 4% dextran sodium sulfate (DSS) in drinking water; assay: Recovery from DSS-induced colitis in rats, 5ASA 100 mg/kg b.i.d. intragastrically for 6 days; type: in vivo, Sprague Dawley male rats
Procedure: Rats were placed on drinking water containing 4% dextran sodium sulfate (DSS) for 5 days and 20 hours to induce colitis after which they were returned to normal drinking water. The animals were then intragastrically administered twice daily for 6 subsequent days with: (a) saline (DSS control); (b) 5ASA at a dose of 100 mg/kg; (c) a 1:1 wt. ratio of 5ASA and Phosal 35 SB (an oil-based formulation); or (d) a 1:2 wt. ratio of 5ASA and Phospholipon 90G (an aqueous lipidic suspension) at the same dose of 5ASA, 100 mg/kg, b.i.d. The formulations (c) and (d) are phosphatidylcholine (PC) associated 5ASA formulations, where the PC and 5ASA are associated at the molecular level. These treatments are designed to compare the efficacy of 5ASA and two different PC:5ASA formulations.
At 1, 3 and 6 days, rats were euthanized and colonic tissue, blood and fecal matter were collected for biochemical and histological analyses to assess colonic inflammation and GI bleeding. A separate group of rats were not placed on DSS and served as “normal controls.”
Referring now to FIG. 8, changes in hematocrit during the 6 day recovery period were measured from the euthanized rats. Changes in hematocrit levels represent an indirect estimate of anemia and internal (GI) bleeding among the groups over the 6 day recovery period.
Colonic inflammation and injury were assessed by measuring a number of biochemical and histological indices. First, tissue edema were assessed by measuring tissue wet weight/unit length.
Colonic myeloperoxidase (MPO) activity, a biochemical marker of neutrophil infiltration into the tissue, was measured as another marker of inflammation.
Tissue histology was scored (under blinded conditions) for signs of injury and inflammation. To assess inflammation we scored the number of inflammatory cells in the lamina propia of the colonic submucosa using a scoring system from 1 (normal) to 4 (highly inflamed).
To assess colonic mucosal injury, a histological scoring system was used, where: 0=normal mucosa; 1=surface injury; 2=injury extending into the mid glandular region; 3=injury extending into the deep glandular region; and 4=injury extending into the serosal (muscle) layer.

[4] = tested on: C57BL/6 mice; assay: Induction of colitis in mice by increasing DSS concentrations in drinking water for 4 days; type: in vivo; conditions: 0% to 4% DSS in drinking water, four days
Source text: Groups of four C57BL/6 mice were exposed to differing amount of dextran sodium sulfate (DSS) in their drinking water for a four day period of time. The mice were then euthanized and colon tissue weight per length measurements for each group of mice were made.
Groups of C57BL/6 mice were exposed to differing amount of dextran sodium sulfate (DSS) in their drinking water for a four day period of time. The mice fecal hemoglobin measurements were made at the end of the four day period.

## Nc1ccc(O)c(C(=O)O)c1 [5ASA, 5-amino salicylic acid]
[1]
  colonic inflammation as colon tissue weight per length: partial reversal
[2]; 50 mg/kg BID, 3 days post DSS
  colon MPO activity (DSS-induced inflammation): partially
  colon weight/length (DSS-induced mucosal edema): partially reversed
  fecal hemoglobin (DSS-induced GI fecal blood loss): partially reversed
[2]; 50 mg/kg twice daily intragastrically
  overall recovery from DSS-induced colitis and GI bleeding (conclusion): promotes tissue recovery from DSS-induced colitis and reduces GI bleeding
[3]; 100 mg/kg b.i.d., 3 to 6 days post-DSS
  overall colonic inflammation and tissue injury / recovery from colitis (biochemical and histological markers, conclusions): significantly reduces colonic inflammation and tissue injury
[3]; 3 and 6 days, 100 mg/kg b.i.d.
  number of inflammatory cells in lamina propia of colonic submucosa, score 1 (normal) to 4 (highly inflamed): reduced number of inflammatory cells
[3]; 3 days post-DSS, 100 mg/kg b.i.d., vs saline-treated controls
  tissue edema (tissue wet weight/unit length): reduced by 5ASA (non significantly)
[3]; day 3, 100 mg/kg b.i.d.
  colonic myeloperoxidase (MPO) activity: reduction
[3]; first day of the recovery period, 100 mg/kg b.i.d.
  fecal hemoglobin (fecal blood loss): may have had a beneficial effect in reducing fecal blood loss

## dextran sodium sulfate [DSS]
[4]
  colonic inflammation or edema as colon tissue weight per length: 3% DSS was shown to cause the greatest increase
  fecal hemoglobin: increased fecal hemoglobin with increasing concentration
